Measured values from publication PMC8401767, “Spectroscopic Studies of Quinobenzothiazine Derivative in Terms of the In Vitro Interaction with Selected Human Plasma Proteins. Part 1” (Molecules, 2021).
Counter-ions that a name gives are not always drawn.

Legend:
[1] = molecular target: T1, Human serum albumin (HSA) (Homo sapiens, UniProt P02768); assay: intrinsic protein fluorescence quenching, Klotz plot; type: binding; conditions: λex 295 nm (Trp); pH 7.4, 0.05 M phosphate, 298 K; unit misprinted in table, L/mol by b49
T1 construct: gene ALB
From the text: intrinsic protein fluorescence quenching, Klotz plot on Human serum albumin (HSA)

[2] = tested on: T2, α-1-Acid glycoprotein (AGP, orosomucoid); assay: as above; type: binding, Homo sapiens; conditions: λex 295 nm (Trp); pH 7.4, 0.05 M phosphate, 298 K; unit misprinted in table, L/mol by b49
T2 construct: gene ORM1
From the text: intrinsic protein fluorescence quenching, Klotz plot on α-1-Acid glycoprotein (AGP, orosomucoid)

T1 sequence (P02768 25-609): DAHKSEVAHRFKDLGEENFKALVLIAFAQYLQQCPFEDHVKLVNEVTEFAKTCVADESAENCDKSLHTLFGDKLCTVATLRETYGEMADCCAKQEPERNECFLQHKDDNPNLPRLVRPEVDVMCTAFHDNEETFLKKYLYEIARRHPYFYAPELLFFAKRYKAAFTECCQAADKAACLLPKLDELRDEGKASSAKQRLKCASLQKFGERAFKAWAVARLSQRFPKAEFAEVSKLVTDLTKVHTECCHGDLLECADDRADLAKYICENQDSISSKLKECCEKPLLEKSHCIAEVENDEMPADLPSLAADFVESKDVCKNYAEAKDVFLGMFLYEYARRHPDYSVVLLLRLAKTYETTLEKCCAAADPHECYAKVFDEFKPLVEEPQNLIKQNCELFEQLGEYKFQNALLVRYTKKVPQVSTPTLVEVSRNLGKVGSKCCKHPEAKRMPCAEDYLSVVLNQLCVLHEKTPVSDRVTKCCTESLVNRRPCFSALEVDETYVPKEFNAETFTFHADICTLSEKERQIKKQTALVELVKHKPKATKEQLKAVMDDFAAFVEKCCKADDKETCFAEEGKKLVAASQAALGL

C[n+]1cc2c(c3ccccc31)Nc1ccccc1S2 [Salt1, 5-methyl-12(H)-chino[3,4-b][1,4]benzothiazinium chloride]
λex 295 nm / (Ka. 10^4) ±SD * (mol.L^-1) [1]: 2.71 ± 0.01 ·10^4
λex 295 nm / (Ka. 10^4) ±SD * (mol.L^-1) [2]: 7.86 ± 0.03 ·10^4
